Test results as given in the RepoRT retention time repository (doi:10.1016/j.chroma.2015.03.063).

Assay: RP, Thermo Scientific Accucore C18, 150 × 2.1 mm, 2.6 µm, 24 °C, 0.28 mL/min, estimated dead time 0.83 min; A: 90% water + 10% acetonitrile + 10 mM ammonium acetate; B: 20% water + 80% methanol + 10 mM ammonium acetate; gradient (min/%B) 0/0 2.5/0 7.5/30 12.5/30 15/40 20/100 27.5/100
Conditions: stereoisomer not certain

Row | SMILES | LC retention time [min]
1 | CCC1(O)CCC2C3CCC4=CC(=O)CCC4=C3C=CC21CC (stereo unspecified) | 18.8
2 | Cc1ccccc1CC(C)N (stereo unspecified) | 6.42
3 | CN(C)C(=O)Oc1cc(OC(=O)N(C)C)cc(C(O)CNC(C)(C)C)c1 (stereo unspecified) | 8.28
4 | CC(=O)OCC(=O)C12N=C(C)OC1CC1C3CCC4=CC(=O)C=CC4(C)C3C(O)CC12C (stereo unspecified) | 15.7
5 | CCN(CC)C(=O)Nc1ccc(OCC(O)CNC(C)(C)C)c(C(C)=O)c1 (stereo unspecified) | 8.15
6 | O=C1CC2OCC=C3CN4CCC56c7ccccc7N1C5C2C3CC46 (stereo unspecified) | 6.68
7 | CC(C)(C#N)c1cc(Cn2cncn2)cc(C(C)(C)C#N)c1 | 12.2
8 | Cc1ccc(C)c(OCCCC(C)(C)C(=O)O)c1 | 17.9
9 | CC(Cc1ccccc1)NCCn1cnc2c1c(=O)n(C)c(=O)n2C (stereo unspecified) | 8.9
10 | CS(=O)(=O)Nc1ccc([N+](=O)[O-])cc1Oc1ccccc1 | 17.2
11 | CNC(C)Cc1ccccc1OC (stereo unspecified) | 6.54
12 | CNC(C)C(O)c1ccccc1 (stereo unspecified) | 2.75
13 | Nc1nc(N)c2nc(-c3ccccc3)c(N)nc2n1 | 6.51
14 | CC(C(O)c1ccccc1)N(C)C (stereo unspecified) | 3.27
15 | COC(=O)C1=C(C)NC(C)=C(C(=O)OC)C1c1ccccc1[N+](=O)[O-] | 17.2
16 | CC(Cc1ccccc1)N(C)Cc1ccccc1 (stereo unspecified) | 17.8
17 | CCCCNc1cc(C(=O)O)cc(S(N)(=O)=O)c1Oc1ccccc1 | 9.25
18 | CC12CCC(=O)C=C1CCC1C2C(=O)CC2(C)C1CCC2(O)C(=O)CO (stereo unspecified) | 9.34
19 | CCOC(=O)C1(c2ccccc2)CCN(C)CC1 | 8.8
20 | CC(C)(N)Cc1ccccc1 | 4.37
21 | CC(Cc1ccccc1)N(C)Cc1ccco1 (stereo unspecified) | 14.8
22 | CNCCC=C1c2ccccc2CCc2ccccc21 | 15.6
23 | CNC(C)C(=O)c1ccccc1 (stereo unspecified) | 2.99

Row | SMILES | LC retention time [min]
24 | COCCc1ccc(OCC(O)CNC(C)C)cc1 (stereo unspecified) | 7.33
25 | C#CCN(C)C(C)Cc1ccccc1 (stereo unspecified) | 15.1
26 | COc1ccc(CC(C)NCC(O)c2ccc(O)c(NC=O)c2)cc1.COc1ccc(CC(C)NCC(O)c2ccc(O)c(NC=O)c2)cc1.O=C(O)C=CC(=O)O (stereo unspecified) | 7.62
27 | CCC(C(=O)OCCN1CCOC(c2ccccc2)C1C)c1ccccc1 (stereo unspecified) | 21.2
28 | CCCC(=O)Nc1ccc(OCC(O)CNC(C)C)c(C(C)=O)c1 (stereo unspecified) | 7.07
29 | CN1C2CCC1C(C(=O)O)C(OC(=O)c1ccccc1)C2 (stereo unspecified) | 4.81
30 | COc1ccc2c3c1OC1C(=O)CCC4(O)C(C2)N(C)CCC314 (stereo unspecified) | 5.11
31 | CC(C)NCC(O)COc1cccc2[nH]ccc12 (stereo unspecified) | 5.15
32 | CC12C=CC(=O)C=C1CCC1C2C(O)CC2(C)C1CCC2(O)C(=O)CO (stereo unspecified) | 9.34
33 | COc1ccccc1OCCNCC(O)COc1cccc2[nH]c3ccccc3c12 (stereo unspecified) | 15.4
34 | N=C1NC(=O)C(c2ccccc2)O1 (stereo unspecified) | 3.65
35 | CCCCCc1cc(O)c2c(c1)OC(C)(C)C1CCC(C(=O)O)=CC21 (stereo unspecified) | 18.9
36 | CC(Cc1ccccc1)NCCC#N (stereo unspecified) | 8.95
37 | COC12CCC3(CC1C(C)(O)C(C)(C)C)C1Cc4ccc(O)c5c4C3(CCN1CC1CC1)C2O5 (stereo unspecified) | 22.2
38 | CC1C(c2ccccc2)OCCN1C (stereo unspecified) | 8.08
39 | CNC(C)C(=O)c1ccc2c(c1)OCO2 (stereo unspecified) | 3.44
40 | CNC(C)C(=O)c1ccc(C)cc1 (stereo unspecified) | 6.27
41 | CC(C)=CCN1CCC2(C)c3cc(O)ccc3CC1C2C (stereo unspecified) | 9.19
42 | CNC(C)Cc1ccccc1 (stereo unspecified) | 4.66
43 | CC(C)c1c(CN(C)C(C)Cc2ccccc2)n(C)n(-c2ccccc2)c1=O (stereo unspecified) | 21.3
44 | C#CC1(O)CCC2C3C(C)CC4=C(CCC(=O)C4)C3CCC21C (stereo unspecified) | 18.6
45 | CC(C)NCC(O)COc1ccc(COCCOC(C)C)cc1 (stereo unspecified) | 8.86
46 | CCNC(C)C(=O)c1ccc(C)cc1 (stereo unspecified) | 6.99
